Data on three compounds can be found in patent publication US6670459B2, “Process for the isolation of novel oligospirostanoside” (Zandu Pharmaceutical Works Ltd., priority 2002, dated 2003).

The test system of assay [1] is immunecompromised mice. The format is in vivo. As to the method:
(§1) 0 day: sensitization with 0.2 ml of 5×10^9 SRBC/ml i.p.
(§2) SRBC: Sheep red blood cell.
(§3) 5th day: measurement of foot thickness/Haemagglutination antibody titre

Assay [2] has as its system immunecompromised mice. The format is in vivo. As to the method:
as §1
4th day: challenged with 20 μl of 5×10^9 SRBC/ml into right hind footpad for DTH reaction only.
as §2, §3
This is another data set of the same source.

The mark [3] stands for this setting: immunecompromised mice, 0.0006 mg/kg p.o., days 0-4, day 5, n=12.
Setting [4] is: immunecompromised mice, 0.0125 mg/kg p.o., days 0-4, day 5, n=12.
Where [5] appears, read: oral, immunecompromised experimental animals, dose levels 0.0062-0.0125 mg Kg^-1.
[6] abbreviates: immunecompromised mice, 2.5 mg/kg p.o., days 0-4, day 5, n=12.
Where [7] appears, read: mice, 250 mg/kg p.o., day 5, n=12.

Read-outs that look alike come from different tables or passages of the source. Marks after values point to notes of the source that are not given here.

On to `C[C@H]1CC[C@@]2(OC1)O[C@H]1C[C@H]3[C@@H]4CC[C@@H]5C[C@@H](O[C@@H]6O[C@H](CO)[C@@H](O[C@@H]7O[C@@H](C)[C@H](O)[C@@H](O)[C@H]7O[C@@H]7O[C@@H](C)[C@H](O)[C@@H](O)[C@H]7O)[C@H](O)[C@H]6O)CC[C@]5(C)[C@H]4CC[C@]3(C)[C@H]1[C@@H]2C` [AR-Iv, 3-0-[α-L-rhamnopyranosyl-(1→2)-α-L-rhamnopyranosyl-(1→4)-0-β-D-glucopyranosyl]-25(S)-5β-spirostan-3β-ol], for which, in assay [1] (setting [3]), the “Antibody titre % change compared to control” value (“Antibody titre % change” for short) was 56** % and the “Antibody titre mean ± S.E.” value is 5.60 ± 0.33. Besides, in assay [1] (setting [4]), the “Antibody titre % change” value is 78*** % and the “Antibody titre mean ± S.E.” value was found to be 6.41 ± 0.16. Further, the potentiated antibody synthesis in assay [1] (setting [5]) is given as 55.55-69.44%. Besides, in assay [2] (setting [3]), the “DTH % change compared to control” value is 78*** % and the “DTH mean ± S.E.” value was determined as 0.80 ± 0.14. For the same compound, in assay [2] (setting [4]), the “DTH % change compared to control” value is on record as 102*** % and the “DTH mean ± S.E.” value was found to be 0.91 ± 0.42. Moreover, the “enhanced cell-mediated immune response” value in assay [2] (setting [5]) is 77.77-102.22%.
On to `c1ccc([C@H]2CN3CCSC3=N2)cc1` [LEV, Levamisole, reference compound], for which, in assay [1] (setting [6]), the “Antibody titre % change” value is reported as 89*** % and the “Antibody titre mean ± S.E.” value turned out to be 6.80 ± 0.30. Moreover, in assay [2] (setting [6]), the “DTH % change compared to control” value was 140*** % and the “DTH mean ± S.E.” value is listed as 1.08 ± 0.14.
In the case of Cyclodextrin [reference compound], in assay [1] (setting [7]), the “Antibody titre % change” value is given as 45* % and the “Antibody titre mean ± S.E.” value is 3.60 ± 0.33. Also, in assay [2] (setting [7]), the “DTH % change compared to control” value was 23* % and the “DTH mean ± S.E.” value was 0.45 ± 0.24.
